# Laboratory results published in US20260124278A1, “COMPOSITIONS AND METHODS FOR TREATMENT OF NEUROLOGICAL DISORDERS” (D&D Pharmatech Inc., priority 2022, published 2026).
# Columns and labels:
# [1] = system: trypsin; experiment: in vitro stability against trypsin; assay type: in vitro ADME; settings: 0 min
# [2] = system: FaSSIF/pancreatin; experiment: in vitro stability against FaSSIF/pancreatin; assay type: in vitro ADME; settings: 0 min
# [3] = system: primary microglia; experiment: α-syn PFF induced microglial activation, cytokine mRNA by qPCR; assay type: cell-based, mouse; settings: agonist 2 μM, 150 nM PFF for 4 h
# Description: Mouse microglia isolated from postnatal day 2 CD1 mouse brain were obtained from ScienCell Research Laboratories (M1900, Carlsbad, CA). […] Pre-condition: 24 hrs non-serum condition.
# Total RNA from cultured cells was extracted with a RNA isolation kit (Qiagen, Valencia, CA, USA) following the instructions provided by the company. RNA concentration was measured spectrophotometrically using a NanoDrop 2000 (Biotek, Winooski, VT, USA). Subsequently, 1-2 μg of total RNA was reverse transcribed to cDNA using the High-Capacity cDNA Reverse Transcription System (Life Technologies, Grand Island, NY, USA). Comparative qPCR was performed in duplicate or triplicate for each sample using fast SYBR Green Master Mix (Life Technologies) and ViiA 7 Real-Time PCR System (Applied Biosystems, Foster City, CA, USA). The expression levels of target genes were normalized to the expression of Actb and calculated based on the comparative cycle threshold Ct method (2^−ΔΔCt).
# [4] = in vivo; cited from earlier work
Compound,Remaining amount (%) after trypsin treatment [1] [%],Remaining amount (%) after FaSSIF/Pancreatin treatment [2] [%],"α-syn PFF induced mRNA expression of TNF-α, IL-1α, IL-1β, C1q and IL-6 [3]",half-life [4] [h]
CC[C@H](C)[C@H](NC(=O)[C@H](Cc1ccccc1)NC(=O)[C@H](CCC(=O)O)NC(=O)[C@H](CCCCNC(=O)COCCOCCNC(=O)COCCOCCNC(=O)CC[C@H](NC(=O)CCCCCCCCCCCCCCCCC(=O)O)C(=O)O)NC(=O)[C@H](C)NC(=O)[C@H](C)NC(=O)[C@H](CCC(N)=O)NC(=O)CNC(=O)[C@H](CCC(=O)O)NC(=O)[C@H](CC(C)C)NC(=O)[C@H](Cc1ccc(O)cc1)NC(=O)[C@H](CO)NC(=O)[C@H](CO)NC(=O)[C@@H](NC(=O)[C@H](CC(=O)O)NC(=O)[C@H](CO)NC(=O)[C@@H](NC(=O)[C@H](Cc1ccccc1)NC(=O)[C@@H](NC(=O)CNC(=O)[C@H](CCC(=O)O)NC(=O)C(C)(C)NC(=O)[C@@H](N)Cc1cnc[nH]1)[C@@H](C)O)[C@@H](C)O)C(C)C)C(=O)N[C@@H](C)C(=O)N[C@@H](Cc1c[nH]c2ccccc12)C(=O)N[C@@H](CC(C)C)C(=O)N[C@H](C(=O)N[C@@H](CCCNC(=N)N)C(=O)NCC(=O)N[C@@H](CCCNC(=N)N)C(=O)NCC(=O)O)C(C)C [Semaglutide],100.0,100.0,–,–
NLY01: long-acting PEGylated form of exenatide,–,–,significantly reduces,88
